Four molecules from patent publication EP0854192A2, “Production of human cathepsin and its use” (Takeda Chemical Industries, Ltd., priority 1992, dated 1994) can be followed below.

SMILES strings stand for the structures. Where a SMILES comes first, the peptide text is derived from it. [ ]: non-standard residue; d: D form. The star is where a group is joined. Sta = CC(C)C[C@H](N)[C@@H](O)CC(=O)O; Isovaleryl = CC(C)CC(=O)*; Cbz = O=C(OCc1ccccc1)*; CHN2 = [N-]=[N+]=C*

The assay has as its target human cathepsin L (recombinant, of human renal origin cDNA, expressed in COS-7 cells, concentrated culture supernatant) (Homo sapiens, UniProt P07711). Briefly: Cathepsin L enzyme activity assay with synthetic substrate Z-Phe-Arg-NMec in the presence of enzyme inhibitors (method of Barrett and Kirschke). The assay is classed as biochemical. To be noted: 30°C, 10 minutes; for remaining activity at 1 µM: 1 µM inhibitor added after enzyme activation. How it is done:
The culture supernatant of COS-7 transformant prepared in Example 2 was concentrated about 20-fold with Centricut (produced by Kurabo Industries, Ltd., cut-off molecular weight = 10000) and assayed for cathepsin L enzyme activity, according to the method of A. J. Barrett and H. Kirschke [Methods in Enzymology 80, 535 (1981)]. To 25 µl of this concentrated culture supernatant were added 25 µl of 1 M sodium formate buffer (pH 3.0) and 10 µl of 0.1 M DTT, and water was added for a final volume of 250 µl, followed by incubation at 37°C for 30 seconds. After 125 µl of activating buffer (340 mM sodium acetate, 60 mM acetic acid, 4 mM EDTA disodium, pH 5.5) was added, the mixture was kept standing at 30°C for 1 minute for activation. The enzyme reaction was carried out at 30°C for 10 minutes in the presence of 125 µl of a synthetic substrate solution [20 µM Z-Phe-Arg-NMec (Z: benzyloxycarbonyl-, NMec: -7-(4-methyl)coumarylamide)], and stopped by the addition of 500 µl of a reaction stopper (100 mM sodium monochloroacetate, 30 mM sodium acetate, 70 mM acetic acid, pH 4.3). For a control experiment, a culture supernatant of COS-7 cells not expressing cathepsin L was used as an enzyme solution. After termination of the reaction, 100 µl of the reaction mixture was injected into a 96-well fluoroplate (produced by Labo Systems), and the fluorescence intensity of free 7-amino-4-methylcoumarin was determined at a wavelength of 450 nm (excitation wavelength = 365 nm) using a fluorometer FCA (produced by Baxter). In assessing the effects of the following enzyme inhibitors on the present enzyme activity, the inhibitor was added after the above enzyme activating operation. The enzyme inhibitors used were 10 µM leupeptin (cysteine protease inhibitor), 10 µM (p-amidinophenyl)methanesulfonyl fluoride hydrochloride (APMSF: serine protease inhibitor), 1 µM Z-Phe-Phe-CHN2 (cathepsin L inhibitor, -CHN2: -diazomethane) and 1 µM pepstatin A (aspartic acid protease inhibitor).

Setting [1] is: read-out: enzyme activity in the presence of enzyme inhibitor, in comparison with the inhibitor-free control.

Chain of human cathepsin L (recombinant, of human renal origin cDNA, expressed in COS-7 cells, concentrated culture supernatant) (P07711 114-333): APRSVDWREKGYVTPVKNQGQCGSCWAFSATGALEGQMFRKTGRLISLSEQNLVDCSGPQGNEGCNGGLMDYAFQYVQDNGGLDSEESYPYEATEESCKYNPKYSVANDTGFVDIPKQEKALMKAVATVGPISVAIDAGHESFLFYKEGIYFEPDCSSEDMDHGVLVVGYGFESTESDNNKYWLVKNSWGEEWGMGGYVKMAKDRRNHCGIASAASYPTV

Consider `Cl.N=C(N)c1ccc(CS(=O)(=O)F)cc1` [APMSF, (p-amidinophenyl)methanesulfonyl fluoride hydrochloride], for which the “enzyme activity in the presence of enzyme inhibitor, in comparison with the inhibitor-free control” value (10 µM inhibitor added after enzyme activation, remaining activity) is 79%.

On to `[N-]=[N+]=CC(=O)[C@H](Cc1ccccc1)NC(=O)[C@H](Cc1ccccc1)NC(=O)OCc1ccccc1` [Z-Phe-Phe-CHN2] (Cbz-Phe-Phe-CHN2), for which the remaining activity at 1 µM under setting [1] is 6.3%.

Take `CC(=O)N[C@@H](CC(C)C)C(=O)N[C@@H](CC(C)C)C(=O)N[C@H](C=O)CCCNC(=N)N` [leupeptin]: the remaining activity at 10 µM (10 µM inhibitor added after enzyme activation, read-out: enzyme activity in the presence of enzyme inhibitor, in comparison with the inhibitor-free control) stood at 3.4%.

`CC(C)CC(=O)N[C@H](C(=O)N[C@H](C(=O)N[C@@H](CC(C)C)[C@@H](O)CC(=O)N[C@@H](C)C(=O)N[C@@H](CC(C)C)[C@@H](O)CC(=O)O)C(C)C)C(C)C` [pepstatin A] (Isovaleryl-VV[Sta]A[Sta]-OH): the remaining activity at 1 µM under setting [1] is 99%.
